According to patent US9623030B2, “Tumescent antibiotic solution” (priority 2004, dated 2017):
In brackets after ≈: the same amount, converted by molar mass.

Experiments:
[1] = tested on: Staphyloccus aureus (MRSA) ATCC 33592; assay: Minimum Inhibitory Concentration (MIC) by dilution; settings: Staphylococcus aureus, read-out: MIC
Method: Following inoculation, survival of test microorganisms was determined.

[2] = female, human, in vivo
Method: A clinical pharmacologic investigation was conducted to compare the pharmacokinetic advantages of two modes of systemic antibiotic delivery, Tumescent antibiotic delivery (TAD), which involves the delivery of a relatively large volume of an antibiotic-containing solution to the subcutaneous compartment, and intravenous antibiotic delivery (IVAD), which results in direct delivery of antibiotics to the blood stream, for prophylaxis of SSI.
With Institutional Review Board (IRB) approval, the absorption pharmacokinetics of tumescent antibiotic delivery (TAD) and intravenous antibiotic delivery (IVAD) were tested in human subjects and the antibiotic delivery modes were evaluated with respect to the area under the curve (AUC) of antibiotic concentration as a function of time and peak antibiotic concentration (Cmax) in serum and TISF. 4 female subjects participated in at least one study, one subject volunteered for 2 separate studies. 5 studies were conducted: 3 involved TAD to the abdomen, 1 involved TAD to the hips and outer thighs and 1 involved TAD to the breasts. […] Each of the 5 studies consisted of 2 to 3 pharmacokinetic procedures, for a total of 14 procedures. Any procedures conducted on an individual subject were separated by at least one week. In 13 procedures only IVAD or TAD, was used. […]

[3] = 1 gm given at the end of the surgery; 405 abdominal surgery patients; cited from earlier work
S. aureus = settings: effect increases with greater duration of exposure; cited from earlier work
platelet aggregation = settings: cited from earlier work
[4] = cited from earlier work

**Q.** For Cc1nnc(SCC2=C(C(=O)O)N3C(=O)[C@@H](NC(=O)Cn4cnnn4)[C@H]3SC2)s1 [Cefazolin], which MIC [1] is on record?
**A.** 125 to 250 µg/mL (≈ 275 to 550 µM)

**Q.** With Cc1ncc([N+](=O)[O-])n1CCO [Metronidazole] as the molecule, how does the “interval in which serum concentration of metronidazole exceeded 4 μg/ml” value [2] read?
**A.** 0 to 12 h

**Q.** For O=C(Cc1cccs1)N[C@@H]1C(=O)N2C(C(=O)[O-])=C(C[n+]3ccccc3)CS[C@H]12 [cephaloridine], which “incidence of wound infection, intravenous vs intra incisional” value [3] is on record?
**A.** no significant difference

**Q.** For CCN(CC)CC(=O)Nc1c(C)cccc1C [Lidocaine], which “bactericidal effect in vitro” value (S. aureus) is on record?
**A.** bactericidal

**Q.** And the “lidocaine concentration consistently inhibiting in-vitro platelet aggregation” value (platelet aggregation; aggregation induced by ADP, epinephrine and collagen)?
**A.** ≥ 0.5 mg/mL

**Q.** And the “effect on platelet aggregation” value (platelet aggregation; safe systemic concentrations (≦6 micrograms/ml))?
**A.** no effect

**Q.** And the “maximum safe mg/kg dosage of tumescent lidocaine (estimated)” value ([4]; adults, TLA without liposuction)?
**A.** 30 mg/kg

**Q.** What about the “dosage limitation approved by the FDA for infiltration local anesthesia” value ([4]; commercial lidocaine (1%) with epinephrine (1:100,000)) of the same molecule?
**A.** 7 mg/kg

**Q.** And the “duration of local anesthesia” value ([4]; routine local anesthesia)?
**A.** 2 h
